Common to all, as to experiment: coupled spectrophotometric assay
Format in all cases: biochemical

Test [1] deals with T1, Rhizobium etli pyruvate carboxylase (RePC) (Rhizobium etli, UniProt Q2K340).
T1 sequence (Q2K340 1-1154): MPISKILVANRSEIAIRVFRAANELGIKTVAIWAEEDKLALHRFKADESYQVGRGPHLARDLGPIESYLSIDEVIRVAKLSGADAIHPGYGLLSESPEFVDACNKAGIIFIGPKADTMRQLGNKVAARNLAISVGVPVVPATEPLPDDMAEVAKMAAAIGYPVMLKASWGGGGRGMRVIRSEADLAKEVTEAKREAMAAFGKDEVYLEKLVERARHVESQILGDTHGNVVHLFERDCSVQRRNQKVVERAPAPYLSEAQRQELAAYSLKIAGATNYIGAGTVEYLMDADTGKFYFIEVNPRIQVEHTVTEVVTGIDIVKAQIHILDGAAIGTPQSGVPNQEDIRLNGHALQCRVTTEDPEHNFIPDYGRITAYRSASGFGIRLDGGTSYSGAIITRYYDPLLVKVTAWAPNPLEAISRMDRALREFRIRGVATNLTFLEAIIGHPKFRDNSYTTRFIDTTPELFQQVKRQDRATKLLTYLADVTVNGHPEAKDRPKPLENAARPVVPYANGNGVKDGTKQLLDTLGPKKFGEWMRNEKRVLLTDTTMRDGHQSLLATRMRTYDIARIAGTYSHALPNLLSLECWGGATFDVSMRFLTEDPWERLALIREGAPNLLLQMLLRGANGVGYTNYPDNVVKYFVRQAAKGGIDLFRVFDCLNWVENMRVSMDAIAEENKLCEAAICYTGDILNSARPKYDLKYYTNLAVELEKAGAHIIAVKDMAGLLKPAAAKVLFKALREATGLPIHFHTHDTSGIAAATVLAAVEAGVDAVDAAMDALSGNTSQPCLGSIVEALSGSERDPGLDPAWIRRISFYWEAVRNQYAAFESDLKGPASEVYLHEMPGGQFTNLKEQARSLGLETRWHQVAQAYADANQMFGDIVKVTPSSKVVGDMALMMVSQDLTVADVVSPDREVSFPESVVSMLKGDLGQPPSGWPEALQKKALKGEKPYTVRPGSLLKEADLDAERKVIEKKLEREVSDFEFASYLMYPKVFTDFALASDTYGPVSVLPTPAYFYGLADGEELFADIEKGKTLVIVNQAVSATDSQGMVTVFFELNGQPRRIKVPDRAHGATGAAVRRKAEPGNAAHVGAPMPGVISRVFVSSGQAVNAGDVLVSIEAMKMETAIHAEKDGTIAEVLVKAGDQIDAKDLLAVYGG

Test [2] addresses T2, Rhizobium etli pyruvate carboxylase (RePC) (Rhizobium etli, UniProt Q2K340, R427K).
T2 sequence (Q2K340 1-1154 R427K): T1 sequence (Q2K340 1-1154) with R427K

Test [3] concerns the target Rhizobium etli pyruvate carboxylase (RePC) (Rhizobium etli, UniProt Q2K340, R472S).

By Ki is commonly meant the dissociation constant of the complex between target and ligand, obtained from inhibition or displacement. A low value points to tighter binding.

Changes are numbered by the printed parent chain.

As to `N[C@@H](CC(=O)O)C(=O)O` [L-aspartate], the Ki was 5 ± 0.6 mM in test [1], 4.5 ± 0.6 mM in test [2] and 7 ± 1 mM in test [3].

Values taken from paper PMC3567212 (Biochemistry, 2012).
